Measurements: US7214495B2, “Screening method” (Takeda Pharmaceutical Company Limited, priority 2002, dated 2007)

Assays:
Format in all cases: cell-based
[1] = test system: mouse pancreatic β cell line MIN6; test: Insulin secretion from MIN6 in KRBH buffer (immunoassay); conditions: for insulin secretion enhancing activity: 22 mM glucose KRBH, 90 minutes; for insulin secretion activity in BSA-containing buffer / insulin secretion enhancing activity in buffer containing Nifedipine / insulin secretion enhancing activity in PD98059-containing buffer / insulin secretion enhancing activity, glucose dependency: 10 μM fatty acid; for insulin secretion activity in BSA-containing buffer: 0.1% fatty acid-free BSA; for insulin secretion enhancing activity in buffer containing Nifedipine: Nifedipine 10 μM; for insulin secretion enhancing activity in PD98059-containing buffer: PD98059 50 μM; for insulin secretion enhancing activity, glucose dependency: high glucose level conditions of at least 11 mM (0, 5.5, 11, 22 mM tested); for insulin secretion enhancing activity in buffer without Ca^2+ ions: 10 μM, no Ca^2+ ions, 0.1 mM EGTA, 22 mM glucose; for insulin secretion enhancing activity in m40i103-introduced MIN6: GPR40-specific siRNA m40i103 introduced; for insulin secretion enhancing activity in MIN6 introduced with Scramble II duplex siRNA: random siRNA control
Description: The mouse pancreatic β cell line MIN6 incubated in a flask was scraped in PBS containing 2.5 mM EDTA and plated in a 96-well plate followed by incubation for 2 days. The medium used was the same as in EXAMPLE 24, namely, 4.5 g/l of glucose-containing Dulbecco's Modified Eagle Medium (DMEM, Invitrogen, Inc.) supplemented with 15% fetal calf serum (ThermoTrace, Inc.), 5.5 μM 2-mercaptethanol (Invitrogen, Inc.), 20 mM HEPES pH 7.3, 100 U/ml penicillin and 100 μg/ml streptomycin. The cells were washed twice with modified Krebs-Ringer bicarbonate buffer (KRBH, 116 mM NaCl, 4.7 mM KCl, 1.2 mM KH2PO4, 1.2 mM MgSO4, 2.5 mM CaCl2, 25 mM NaHCO3, 24 mM HEPES, pH 7.3), followed by preincubation at 37° C. in 5% CO2 for 30 minutes. The fatty acid diluted/prepared using the aforesaid KRBH buffer added with 22 mM glucose was added to the cells after the preincubation, followed by incubation under the conditions of 37° C. in 5% CO2 for 90 minutes. After the incubation, the supernatant of the cells was recovered and stored in a frozen state. The insulin content in the supernatant was assayed using an insulin immunoassay kit commercially available (Amersham Pharmacia, Inc.).
Based on the method of EXAMPLE 25, effects of glucose level when added with fatty acids were examined. The level of glucose, which was added to KRBH upon the addition of fatty acids, was varied to 0, 5.5, 11 and 22 mM to study the effects.
The insulin secretion enhancing activity in the m40i103-introduced MIN6 cells using HVJ Envelope VECTOR KIT GenomONE based on the method of EXAMPLE 18 was examined. The insulin secretion enhancing activity by fatty acids was examined according to the method of EXAMPLE 25.
Based on the procedures of EXAMPLE 25, an essential prerequisite of Ca^2+ ions in the extracellular fluid was examined. In preincubation and incubation with a sample, Ca^2+ ions were removed and 0.1 mM EGTA, which was a reagent for chelating Ca^2+ ions, was further added, and then the insulin secretion enhancing activity by fatty acids was examined in this case.
Based on the method of EXAMPLE 25, effects of Ca^2+ channel blocker (Nifedipine) and MAP kinase inhibitor (PD98059) were examined. In preincubation and incubation with a sample, the insulin secretion enhancing activity by fatty acids was examined when Nifedipine (10 μM) or PD98059 (50 μM) was added.
It is known that fatty acids have the property of binding to albumin. Based on the method of EXAMPLE 25, effects were examined when bovine serum albumin (BSA) was present. In preincubation and incubation with a sample, the insulin secretion activity by fatty acids was examined when 0.1% BSA was added to the buffer.

[2] = target: T1, human GPR40 (Homo sapiens, UniProt O14842); test: EC50 by FLIPR calcium assay in CHO cells stably expressing human GPR40; conditions: intracellular calcium, FLIPR, stable CHO line; read-out: EC50 Human GPR40
T1 construct: The resulting fragment (ca. 1 kb) was introduced into vector pAKKO-111, which was used for transfection of CHO cells; expressed in transfected cells
T1 sequence (O14842 whole entry, the tested form may be a part): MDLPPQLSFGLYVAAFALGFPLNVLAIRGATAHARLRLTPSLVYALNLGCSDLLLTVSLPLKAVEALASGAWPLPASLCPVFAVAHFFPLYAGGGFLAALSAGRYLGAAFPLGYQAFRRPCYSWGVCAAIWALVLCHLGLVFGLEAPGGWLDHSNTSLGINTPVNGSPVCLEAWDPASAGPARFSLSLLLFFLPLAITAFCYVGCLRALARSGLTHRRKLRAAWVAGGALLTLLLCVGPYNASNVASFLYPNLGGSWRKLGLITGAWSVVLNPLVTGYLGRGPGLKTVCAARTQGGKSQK
Description: (§1) For determination of EC50 values, the CHO cell lines in which human-, mouse- and rat-derived GPR40 was stably expressed were used. Unless otherwise indicated, these CHO cell lines were incubated in α-MEM medium (Invitrogen) supplemented with 10% fetal calf serum (Invitrogen).
(§2) On the day before assay, the cells incubated to almost confluent stage were rinsed with PBS (Invitrogen), then scraped in 0.05% trypsin-EDTA solution (Invitrogen) and recovered by centrifugal operation. The number of the cells obtained was counted and diluted so as to contain 3×10^5 cells/1 mL of the medium. The dilution was dispensed in a Black welled 96-well plate (Coster) in 100 μL/well, followed by incubation overnight in a CO2 incubator. To the thus prepared CHO cells, various test samples were added and the changes in intracellular calcium level in this case were measured using FLIPR (Molecular Device). In order to determine the changes in the intracellular calcium ion level on FLIPR, the cells were pre-treated by the following procedures.
(§3) First, for the purpose of adding a fluorescent dye Fluo-3 AM (DOJIN) to the cells or washing the cells immediately before the FLIPR assay, an assay buffer was prepared. A solution obtained by adding 20 mL of 1M HEPES (pH 7.4) (DOJIN) to 1000 mL of HBSS (Invitrogen) was prepared (hereinafter HBSS/HEPES solution), to which 10 mL of a solution mixture obtained by dissolving 710 mg of Probenecid (Sigma) in 5 mL of 1N NaOH and further adding 5 mL of HBSS/HEPES solution was added. The resulting solution was used as the assay buffer. Next, 50 μg of Fluo-3AM was dissolved in 21 μL of DMSO (Wako) and an equal volume of 20% Pulronic acid (Molecular Probes) was added to and mixed with the solution. The mixture was then added to 10.6 mL of the assay buffer supplemented with 105 μL of fetal calf serum to prepare a fluorescent dye solution. […], the medium for the CHO cells again plated in a Black welled 96-well plate was removed. Immediately thereafter, the fluorescent dye solution was dispensed in 100 μL each/well and the cells were incubated in a CO2 incubator for an hour so that the fluorescent dye was taken up into the cells. The cells after the incubation was washed with the assay buffer described above and set on FLIPR. […] After the pre-treatment above was made, the changes in intracellular calcium level after the addition of various test samples were measured on FLIPR.

[3] = target: T2, Mouse GPR40 (Mus musculus, UniProt Q76JU9); test: EC50 by FLIPR calcium assay in CHO cells stably expressing mouse GPR40; conditions: intracellular calcium, FLIPR, stable CHO line; read-out: EC50 Mouse GPR40
T2 construct: expressed in transfected cells
T2 sequence (Q76JU9 whole entry): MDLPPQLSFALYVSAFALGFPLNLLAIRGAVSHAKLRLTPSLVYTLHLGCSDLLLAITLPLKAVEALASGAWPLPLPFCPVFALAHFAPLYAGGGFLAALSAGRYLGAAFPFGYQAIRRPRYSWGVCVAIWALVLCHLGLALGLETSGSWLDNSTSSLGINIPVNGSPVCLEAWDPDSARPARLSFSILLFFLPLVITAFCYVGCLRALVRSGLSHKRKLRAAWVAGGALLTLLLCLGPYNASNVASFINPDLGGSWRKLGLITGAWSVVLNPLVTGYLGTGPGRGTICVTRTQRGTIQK
Description: as §1, §2, §3

[4] = target: T1, human GPR40; test: cAMP production in human GPR40-expressed CHO cells; conditions: 10 minutes; for cAMP production activity, presence of forskolin: 2 μM forskolin
Description: (§4) Human and mouse GPR40-expressed CHO cells were incubated for 20 hours in a 96-well Plate at a density of 1×10^5/well. After the cells were washed twice with 100 μl of Assay Buffer (DMEM (Invitrogen) containing 0.1 mM IBMX (Wako Pure Chemical) and 0.1 mM Ro-20-1724 (Biomol)), DHA, solutions of linoleic acid and […] (both by SIGMA) in Assay Buffer in the presence or absence of 2 μM forskolin (Wako Pure Chemical) were added to the cells, followed by reacting at 37° C. for 10 minutes. After the reaction, the cells were lysed in accordance with the formulation of cAMP Screen (ABI) and the cAMP level in the cells was assayed.

[5] = target: T2, Mouse GPR40; test: cAMP production in mouse GPR40-expressed CHO cells; conditions: 10 minutes; for cAMP production activity, presence of forskolin: 2 μM forskolin
Description: as §4

Compound | EC50 [2] [nM] | EC50 [3] [nM] | cAMP production activity, presence of forskolin [4] | cAMP production activity, presence of forskolin [5] | insulin secretion enhancing activity [1] | cAMP production activity, absence of forskolin [4] | cAMP production activity, absence of forskolin [5] | insulin secretion activity in BSA-containing buffer [1] | insulin secretion enhancing activity in buffer containing Nifedipine [1] | insulin secretion enhancing activity in PD98059-containing buffer [1] | insulin secretion enhancing activity, glucose dependency [1] | insulin secretion enhancing activity in buffer without Ca^2+ ions [1] | insulin secretion enhancing activity in m40i103-introduced MIN6 [1] | insulin secretion enhancing activity in MIN6 introduced with Scramble II duplex siRNA [1]
CC/C=C\C/C=C\C/C=C\C/C=C\C/C=C\C/C=C\CCC(=O)O [Docosahexaenoic acid (C22:6), 4Z,7Z,10Z,13Z,16Z,19Z-docosahexaenoic acid] | 1100 ± 300 | 16000 ± 4700 | weakly shown | no activity was shown | significantly noted | did not show any cAMP production activity | did not show any cAMP production activity |  |  |  |  |  |  | 
CCCCC/C=C\C/C=C\C/C=C\C/C=C\CCCC(=O)O [Arachidonic acid (C20:4), Arachidonic acid] | 2400 ± 600 | 5400 ± 800 |  |  | significantly noted |  |  |  |  |  |  |  |  | 
CCCCCCCC/C=C\CCCCCCCC(=O)O [Oleic acid (C18:1), Oleic acid] | 2000 ± 300 | 2700 ± 500 |  |  | significantly noted |  |  | almost suppressed | not appreciated | same results as in ordinary buffer | remarkable | not observed |  | 

The next lines start with results.

EC50 [2] [nM] | EC50 [3] [nM] | cAMP production activity, presence of forskolin [4] | cAMP production activity, presence of forskolin [5] | Compound | insulin secretion enhancing activity [1] | cAMP production activity, absence of forskolin [4] | cAMP production activity, absence of forskolin [5] | insulin secretion activity in BSA-containing buffer [1] | insulin secretion enhancing activity in buffer containing Nifedipine [1] | insulin secretion enhancing activity in PD98059-containing buffer [1] | insulin secretion enhancing activity, glucose dependency [1] | insulin secretion enhancing activity in buffer without Ca^2+ ions [1] | insulin secretion enhancing activity in m40i103-introduced MIN6 [1] | insulin secretion enhancing activity in MIN6 introduced with Scramble II duplex siRNA [1]
4600 ± 1600 | 5200 ± 600 | weakly shown | no activity was shown | CCCCC/C=C\C/C=C\C/C=C\CCCCC(=O)O [γ-Linolenic acid (C18:3), γ-Linolenic acid] | significantly noted | did not show any cAMP production activity | did not show any cAMP production activity |  |  |  |  | not observed | no longer noted | retained
1800 ± 100 | 2900 ± 300 | weakly shown | no activity was shown | CCCCC/C=C\C/C=C\CCCCCCCC(=O)O [Linoleic acid (C18:2), Linoleic acid] | significantly noted | did not show any cAMP production activity | did not show any cAMP production activity | almost suppressed | not appreciated | same results as in ordinary buffer | remarkable | not observed | no longer noted | retained
